This note sets out measurements from ChEMBL document CHEMBL1201862, “PubChem BioAssay data set” (2004).

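Five concentrations, 48 hours, 96-well plates. At the GI50, growth is halved.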 The source made the active and inactive calls. No stated cut-off is given here; in the data, active = GI50 up to about 1.1 µM and inactive = higher. Bounds are passed on as bounds.

Test systems include OVCAR-5; MOLT-4; SN12C; OVCAR-8; MDA-MB-231; SNB-19; KM12; SK-OV-3; SR; OVCAR-3; Hs-578T; HOP-92; A498; SK-MEL-2; K562; DU-145; NCI-H460; SF-268; HL-60.
Assay in all cases: NCI tumour cell line growth inhibition, 48 h

`CC(CC(=O)O)(CC(=O)O)C(=O)O`: the GI50 in the test with OVCAR-5, with MOLT-4, with SN12C, in the test with OVCAR-8, with MDA-MB-231 and with SNB-19 was > 100 µM (inactive) each time. The GI50 in the test with KM12, in the test on SK-OV-3, with SR, with OVCAR-3, with Hs-578T and in the test with HOP-92 was > 100 µM (inactive) throughout. In addition, the GI50 with A498, in the test with SK-MEL-2, with K562, in the test on DU-145, with NCI-H460 and in the test with SF-268 was > 100 µM (inactive) in each case.

Regarding `CC1C[C@]2(C)C(=S)Nc3ccccc3[C@@H]2Nc2ccccc21` (some centres not stated), the GI50 is 20.8 µM (inactive) in the test on OVCAR-5; 17.5 µM (inactive) in the test on MOLT-4; 17.9 µM (inactive) in the test on SN12C; 15.9 µM (inactive) with OVCAR-8; 13.2 µM (inactive) in the test with MDA-MB-231; 21.7 µM (inactive) in the test with SNB-19. Further, the GI50 in the test with KM12 was 15.5 µM (inactive); in the test with HL-60, 33.5 µM (inactive); in the test on SR it was > 100 µM (inactive); in the test with OVCAR-3, 15.1 µM (inactive); in the test on Hs-578T, 35.2 µM (inactive); with HOP-92, 12.2 µM (inactive). Moreover, the GI50 with A498 is 21.5 µM (inactive); in the test on SK-MEL-2, 13 µM (inactive); with K562 it was 26.6 µM (inactive); in the test on DU-145, 4 µM (inactive); in the test with NCI-H460, 13.2 µM (inactive); in the test with SF-268, 1.11 µM (active).

Regarding `CC[C@@H](C)[C@H](NC(=O)[C@H](Cc1ccccc1)NCC(F)(F)F)C(=O)OC(C)(C)C`, the GI50 is > 100 µM (inactive) in the test with OVCAR-5; 67.3 µM (inactive) with MOLT-4; > 100 µM (inactive) in the test with SN12C; > 100 µM (inactive) in the test with OVCAR-8; > 100 µM (inactive) in the test on MDA-MB-231; > 100 µM (inactive) in the test on SNB-19. Also, the GI50 was > 100 µM (inactive) with KM12; > 100 µM (inactive) with SK-OV-3; > 100 µM (inactive) in the test on HL-60; > 100 µM (inactive) in the test on SR; 89.9 µM (inactive) in the test with OVCAR-3; > 100 µM (inactive) in the test on Hs-578T. The GI50 in the test with HOP-92, in the test on A498, with K562, in the test with DU-145, in the test on NCI-H460 and in the test with SF-268 was > 100 µM (inactive) throughout.

For `CSc1nc(C)c(CCOC(C)=O)c(Cl)n1`, the GI50 with OVCAR-5, in the test on MOLT-4, with SN12C, with OVCAR-8, with MDA-MB-231 and in the test with SNB-19 was > 100 µM (inactive) throughout. Further, the GI50 in the test on KM12, in the test with SK-OV-3, with HL-60, in the test with SR, with OVCAR-3 and in the test with Hs-578T was > 100 µM (inactive) each time. For the same molecule, the GI50 is > 100 µM (inactive) with HOP-92; 48 µM (inactive) in the test with A498; > 100 µM (inactive) with K562; > 100 µM (inactive) in the test on DU-145; > 100 µM (inactive) in the test with NCI-H460; > 100 µM (inactive) with SF-268.

As to `CC(=O)C(C(=N)C#N)C(=O)Nc1ccccc1` (configuration not stated), the GI50 in the test with OVCAR-5, in the test with MOLT-4, in the test on SN12C, in the test on OVCAR-8, in the test with MDA-MB-231 and with SNB-19 was > 100 µM (inactive) throughout. Besides, the GI50 with KM12 was > 100 µM (inactive); with SK-OV-3, > 100 µM (inactive); in the test on SR it was > 100 µM (inactive); with OVCAR-3 it was > 100 µM (inactive); with Hs-578T it was 44.9 µM (inactive); in the test on HOP-92, > 100 µM (inactive). Besides, the GI50 in the test on A498, with SK-MEL-2, in the test with K562, in the test with DU-145, in the test on NCI-H460 and in the test with SF-268 was > 100 µM (inactive) in each case.

As to `Cc1nnc(N)nc1C/C=C/C(Sc1ccc(Cl)cc1)c1ccccc1` (configuration not stated), the GI50 with OVCAR-5 was 4.89 µM (inactive); in the test on MOLT-4, 2.56 µM (inactive); with SN12C it was 4.41 µM (inactive); in the test on OVCAR-8, 5.04 µM (inactive); in the test on MDA-MB-231, 6.76 µM (inactive); in the test on SNB-19, 3.05 µM (inactive). The GI50 is 3.56 µM (inactive) with KM12; 3.86 µM (inactive) in the test with SK-OV-3; 2.87 µM (inactive) in the test on HL-60; 3.35 µM (inactive) with SR; 3.27 µM (inactive) in the test on Hs-578T; 5.68 µM (inactive) in the test with HOP-92. For the same molecule, the GI50 in the test on A498 was 3.73 µM (inactive); in the test on SK-MEL-2, 5.66 µM (inactive); with K562 it was 3.44 µM (inactive); in the test with DU-145 it was 8.02 µM (inactive); in the test with NCI-H460, 3.41 µM (inactive); with SF-268, 2.4 µM (inactive).

On to `CC(=O)OC(OC(C)=O)c1ccc2ccc3cccc4ccc1c2c34`, for which the GI50 in the test on OVCAR-5 is 20 µM (inactive); in the test on MOLT-4, 39.4 µM (inactive); in the test with SN12C, 26.7 µM (inactive); in the test on OVCAR-8, 12.8 µM (inactive); with MDA-MB-231 it was 10.1 µM (inactive); in the test with SNB-19, 19.5 µM (inactive). The GI50 in the test on KM12 was 9.77 µM (inactive); with SK-OV-3, 23 µM (inactive); in the test with HL-60, 9.38 µM (inactive); with SR, 21 µM (inactive); with OVCAR-3, 26.7 µM (inactive); in the test with Hs-578T it was 16.1 µM (inactive). Besides, the GI50 in the test with HOP-92 is 17.9 µM (inactive); with A498 it was 1.48 µM (inactive); in the test on K562, 38.7 µM (inactive); in the test on DU-145, 21 µM (inactive); in the test with NCI-H460 it was 21.4 µM (inactive); with SF-268 it was 28 µM (inactive).

`CC1CN(c2cc3c(cc2F)c(=O)c(C(=O)O)cn3-c2ccc(F)cn2)CC(C)N1` (configuration not stated): the GI50 in the test on OVCAR-5, in the test on MOLT-4, in the test on SN12C, in the test on OVCAR-8, in the test on MDA-MB-231 and in the test with SNB-19 was > 100 µM (inactive) each time. Besides, the GI50 in the test with KM12, in the test on SK-OV-3, in the test on HL-60, with SR, with OVCAR-3 and in the test with Hs-578T was > 100 µM (inactive) each time. Further, the GI50 in the test with HOP-92, in the test with A498, in the test with K562, with DU-145, in the test on NCI-H460 and with SF-268 was > 100 µM (inactive) each time.

As for `CC1(C)O[C@H]2OC(CO)C(N=[N+]=[N-])[C@H]2O1` (some centres not stated), the GI50 with OVCAR-5, with MOLT-4, with SN12C, in the test on OVCAR-8, in the test on MDA-MB-231 and with SNB-19 was > 100 µM (inactive) each time. For the same molecule, the GI50 in the test on KM12, with HL-60, in the test on SR, in the test on OVCAR-3, with Hs-578T and in the test on HOP-92 was > 100 µM (inactive) throughout. The GI50 in the test with A498, in the test with SK-MEL-2, in the test with DU-145, with NCI-H460 and in the test on SF-268 was > 100 µM (inactive) throughout.

Consider `CCOC(=O)c1cn2c(n1)sc1cc(Cl)ccc12`, for which the GI50 in the test on OVCAR-5 was 15 µM (inactive); in the test with MOLT-4, 2.96 µM (inactive); in the test on SN12C, 11.4 µM (inactive); in the test with OVCAR-8, 21.9 µM (inactive); in the test on MDA-MB-231 it was > 100 µM (inactive); with SNB-19 it was 8.28 µM (inactive). For the same molecule, the GI50 is 4.54 µM (inactive) with KM12; 52 µM (inactive) in the test on SK-OV-3; 1.55 µM (inactive) in the test on SR; 14.1 µM (inactive) in the test on OVCAR-3; 24.7 µM (inactive) in the test with Hs-578T; > 100 µM (inactive) with HOP-92. For the same molecule, the GI50 in the test on A498 was 33.6 µM (inactive); in the test with SK-MEL-2, > 100 µM (inactive); in the test on K562, 2.86 µM (inactive); in the test with DU-145, 10.7 µM (inactive); with NCI-H460, > 100 µM (inactive); in the test on SF-268, 30.6 µM (inactive).

On to `COc1ccc(-c2cc(=O)c3c(O)c(OC)c(OC)c(OC)c3o2)cc1OC` [5-DEMETHYLNOBILETIN], for which the GI50 in the test on OVCAR-5, with MOLT-4, in the test with SN12C, in the test on OVCAR-8, in the test on MDA-MB-231 and with SNB-19 was > 100 µM (inactive) throughout. Further, the GI50 with KM12 is > 100 µM (inactive); with SK-OV-3, 20.4 µM (inactive); in the test on HL-60 it was > 100 µM (inactive); in the test with SR it was > 100 µM (inactive); with OVCAR-3, > 100 µM (inactive); with Hs-578T, 12.6 µM (inactive). In addition, the GI50 in the test with HOP-92 is 3.73 µM (inactive); with A498, > 100 µM (inactive); in the test on SK-MEL-2, 91.2 µM (inactive); with K562, > 100 µM (inactive); in the test on DU-145, > 100 µM (inactive); in the test with SF-268, 10.1 µM (inactive).
